According to PubChem BioAssay (NCI):
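GI50 marks 50% less growth. At the TGI there is no net growth.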

How the values were obtained:
Experiment in all cases: NCI-60 cell line screen, 384-well format
A498 renal = test system: A498 renal
CCRF-CEM leukemia = test system: CCRF-CEM leukemia
EKVX NSCLC = test system: EKVX NSCLC
HOP-62 NSCLC = test system: HOP-62 NSCLC
HOP-92 NSCLC = test system: HOP-92 NSCLC
HT29 colon = test system: HT29 colon
MCF7 breast = test system: MCF7 breast
SF-268 CNS = test system: SF-268 CNS
SF-539 CNS = test system: SF-539 CNS
SK-MEL-5 melanoma = test system: SK-MEL-5 melanoma
SNB-19 CNS = test system: SNB-19 CNS
SNB-75 CNS = test system: SNB-75 CNS
UACC-257 melanoma = test system: UACC-257 melanoma

Which GI50 (A498 renal) does the source give for `C[C@H](NC(=O)c1c(N)nn2cccnc12)c1cc2cccc(C#Cc3cnn(C)c3)c2c(=O)n1-c1ccccc1` here?
The GI50 was 2.72 µM.

And the TGI (A498 renal)?
Its TGI is 14.8 µM.

What about the GI50 (CCRF-CEM leukemia) of the same compound?
Its GI50 is 0.0549 µM.

What about the TGI (CCRF-CEM leukemia) of the same compound?
Its TGI is 1.78 µM.

And the GI50 (EKVX NSCLC)?
The GI50 was 2.6 µM.

And the TGI (EKVX NSCLC)?
Its TGI is 15.3 µM.

And the GI50 (HOP-62 NSCLC)?
Its GI50 is 7.24 µM.

What about the TGI (HOP-62 NSCLC) of the same compound?
Its TGI is 20.4 µM.

What about the GI50 (HOP-92 NSCLC) of the same compound?
The GI50 was 0.47 µM.

And the TGI (HOP-92 NSCLC)?
Its TGI is 4.04 µM.

And the GI50 (HT29 colon)?
The GI50 was 6.3 µM.

And the TGI (HT29 colon)?
The TGI was 20 µM.

And the GI50 (MCF7 breast)?
Its GI50 is 1.25 µM.

And the TGI (MCF7 breast)?
Its TGI is 6.84 µM.

And the GI50 (SF-268 CNS)?
Its GI50 is 2.02 µM.

What about the TGI (SF-268 CNS) of the same compound?
Its TGI is 9.93 µM.

What about the GI50 (SF-539 CNS) of the same compound?
Its GI50 is 4.67 µM.

And the TGI (SF-539 CNS)?
Its TGI is 17 µM.

What about the GI50 (SK-MEL-5 melanoma) of the same compound?
The GI50 was 5.38 µM.

What about the TGI (SK-MEL-5 melanoma) of the same compound?
Its TGI is 20 µM.

What about the GI50 (SNB-19 CNS) of the same compound?
Its GI50 is 13 µM.

And the TGI (SNB-19 CNS)?
Its TGI is 26.5 µM.

And the GI50 (SNB-75 CNS)?
Its GI50 is 0.806 µM.

And the TGI (SNB-75 CNS)?
Its TGI is 4.38 µM.

What about the GI50 (UACC-257 melanoma) of the same compound?
The GI50 was 8.67 µM.

And the TGI (UACC-257 melanoma)?
Its TGI is 22.7 µM.
